The values below come from ChEMBL document CHEMBL1933036, “Chromenones as potent bradykinin B1 antagonists” (Bioorg Med Chem Lett, 2012).

The target of data set [1] is T1, B1 bradykinin receptor (Oryctolagus cuniculus, UniProt P48748).
T1 sequence (P48748 whole entry): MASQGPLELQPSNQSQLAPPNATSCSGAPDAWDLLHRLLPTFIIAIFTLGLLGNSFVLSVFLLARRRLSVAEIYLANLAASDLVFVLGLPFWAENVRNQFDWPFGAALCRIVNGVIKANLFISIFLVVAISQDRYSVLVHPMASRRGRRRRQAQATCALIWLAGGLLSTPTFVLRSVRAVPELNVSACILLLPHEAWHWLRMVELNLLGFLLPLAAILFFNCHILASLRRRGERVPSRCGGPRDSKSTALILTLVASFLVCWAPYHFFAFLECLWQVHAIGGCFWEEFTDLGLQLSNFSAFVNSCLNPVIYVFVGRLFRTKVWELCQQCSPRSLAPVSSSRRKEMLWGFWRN
Briefly: Antagonist activity at rabbit B1 bradykinin receptor expressed in CHO cells. It counts as functional, cell-based.

Data set [2] concerns the target T2, B1 bradykinin receptor (Homo sapiens, UniProt P46663).
T2 sequence (P46663 whole entry): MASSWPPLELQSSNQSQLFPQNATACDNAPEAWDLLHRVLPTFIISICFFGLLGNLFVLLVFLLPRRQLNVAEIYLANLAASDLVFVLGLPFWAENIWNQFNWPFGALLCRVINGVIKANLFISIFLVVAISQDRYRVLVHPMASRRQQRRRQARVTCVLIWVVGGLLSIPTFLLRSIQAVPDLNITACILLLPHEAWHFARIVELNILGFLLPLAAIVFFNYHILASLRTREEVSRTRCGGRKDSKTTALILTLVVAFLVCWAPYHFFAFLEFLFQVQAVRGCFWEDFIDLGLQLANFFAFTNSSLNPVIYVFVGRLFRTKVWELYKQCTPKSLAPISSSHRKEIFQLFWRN
Briefly: Antagonist activity at human B1 bradykinin receptor expressed in CHO cells by aqueorin-based calcium flux assay. The data set is classed as functional, cell-based. In general terms: Calcium assays in cells follow changes in intracellular calcium, usually with a dye or a luminescent sensor.

Data set [3] concerns the target T2, B1 bradykinin receptor. Briefly: Binding affinity to human B1 bradykinin receptor.
Data set [4] in a line: Clearance in rat at 2 mg/kg, iv. The data set is classed as ADME, organism-based. Also on record: dose 2 mg/kg, route intravenous. The following applies: in vivo.
Data set [5] in a line: Volume of distribution at steady state in rat at 2 mg/kg, iv. The data set is classed as ADME, organism-based. Also on record: dose 2 mg/kg, route intravenous. The following applies: in vivo, read-out: Vdss.
Data set [6] in a line: Half life in rat at 2 mg/kg, iv. It counts as ADME, organism-based. Also on record: dose 2 mg/kg, route intravenous. The following applies: in vivo.
Data set [7] is described as follows: Oral bioavailability in rat at 5 mg/kg. It counts as ADME, organism-based. The following applies: in vivo.
A further data set relates to Oryctolagus cuniculus. Briefly: Analgesic activity in New Zealand white rabbit mechanical hyperalgesia model assessed as reduction in carrageenan-induced paw withdrawal at 10 mg/kg, sc administered 60 mins before carrageenan challenge measured after 3 hrs. Conditions: route subcutaneous. The data set is classed as functional. Also on record: scale not given: the % may be the effect or the level left. On the technique in general: In the carrageenan paw model, swelling and tenderness develop within hours.

Data set [8] in a line: Plasma concentration in New Zealand white rabbit carrageenan-induced mechanical hyperalgesia model at 10 mg/kg, sc administered 60 mins before carrageenan challenge measured after 3 hrs. The data set is classed as ADME, organism-based, Oryctolagus cuniculus. The arrangement: dose 10 mg/kg, route subcutaneous.
A short description of data set [9]: Oral bioavailability in rat at 2 mg/kg. Conditions: in vivo. The data set is classed as ADME, organism-based.

Turning to `O=C(N[C@@H]1CCCc2cc(CN3CCCCC3)ccc21)c1cccc(-c2coc3ccccc3c2=O)c1`, the IC50 (in general, the point on the concentration scale where inhibition reaches its midpoint) on B1 bradykinin receptor [1] was 0.476 µM; on B1 bradykinin receptor [2], 0.112 µM.
Consider `Cc1nn(-c2cccc(C(=O)N[C@@H]3CCCc4cc(CN5CCCCC5)ccc43)c2)c(=O)c2ccccc12`, for which the half-maximal inhibitory concentration (IC50) against B1 bradykinin receptor [1] is over 6.46 µM; at B1 bradykinin receptor [2] it was 3.4 µM.
Take `Cc1nn(-c2ccc(C(=O)N[C@H]3CCCc4cc(CN5CCCCC5)ccc43)cc2)c(=O)c2ccccc12`: the IC50 against B1 bradykinin receptor [1] came to 0.098 µM; at B1 bradykinin receptor [2], 0.007 µM. Also, the Ki (commonly a measure of affinity in units of concentration, obtained from inhibition or displacement) on B1 bradykinin receptor [3] worked out at 0.043 µM.
As for `O=C(N[C@@H]1CCCc2cc(CN3CCCCC3)ccc21)c1cccc(-c2coc3cccc(Cl)c3c2=O)c1`, the IC50 against B1 bradykinin receptor [1] was 0.248 µM; on B1 bradykinin receptor [2], 0.017 µM. Affinity on B1 bradykinin receptor [3] was put at a Ki of 0.029 µM.
In the same order, the values of `O=C(N[C@@H]1CCCc2cc(CN3CCCCC3)ccc21)c1cccc(-c2coc3ccc(Cl)cc3c2=O)c1` are over 0.16 µM, 0.279 µM and 0.767 µM.
For `O=C(N[C@@H]1CCCc2cc(CN3CCCCC3)ccc21)c1cccc(-c2coc3ccc(F)cc3c2=O)c1`, the IC50 came out at 0.393 µM on B1 bradykinin receptor [1] and 0.078 µM at B1 bradykinin receptor [2]. Besides, the affinity at B1 bradykinin receptor [3], expressed as Ki, was 0.398 µM.
Take `O=C(N[C@@H]1CCCc2cc(CN3CCCCC3)ccc21)c1cccc(-c2coc3cc(Cl)ccc3c2=O)c1`: the values for the half-inhibitory concentration (IC50) against B1 bradykinin receptor [1] and at B1 bradykinin receptor [2] were over 0.8 µM and 0.799 µM, respectively.
Consider `O=C(N[C@@H]1CCCc2cc(CN3CCCCC3)ccc21)c1cccc(-c2coc3c(Cl)cccc3c2=O)c1`, for which the IC50 is over 0.8 µM against B1 bradykinin receptor [1] and 0.188 µM on B1 bradykinin receptor [2]. Besides, the Ki at B1 bradykinin receptor [3] came to 0.322 µM.
For the compound `O=C(N[C@H]1CCCc2cc(CN3CCCCC3)ccc21)c1ccc(-c2coc3ccccc3c2=O)cc1`, the IC50 on B1 bradykinin receptor [1] was 0.122 µM.
Turning to `O=C(N[C@H]1CCCc2cc(CN3CCCCC3)ccc21)c1ccc(-c2coc3cccc(Cl)c3c2=O)cc1`, in data set [4], the clearance (usually a measure of how efficiently the substance is removed, as volume per time) is 17.7 mL/min/kg. Also, the Vd in data set [5] is 6.67 L/kg. In addition, in data set [6], the half-life (commonly the time in which the quantity being followed falls by half) is 4.5 h. The results for the IC50 on B1 bradykinin receptor [1] and at B1 bradykinin receptor [2] were 0.03 µM and 0.004 µM, respectively. The same compound showed a Ki at B1 bradykinin receptor [3] of 0.004 µM. Moreover, in data set [7], the bioavailability (as a rule, dose-corrected exposure relative to a reference, in per cent) came to 43.6%. Moreover, the Activity in the data set on Oryctolagus cuniculus amounted to 65%. The compound also came in with a concentration at 3 h in data set [8] of 379 nM.
For `O=C(N[C@H]1CCCc2cc(CN3CCCCC3)ccc21)c1ccc(-c2coc3ccc(Cl)cc3c2=O)cc1`, the IC50 on B1 bradykinin receptor [1] and on B1 bradykinin receptor [2] was over 4 µM each time. In addition, the affinity at B1 bradykinin receptor [3], expressed as Ki, was 1.62 µM.
`O=C(N[C@H]1CCCc2cc(CN3CCCCC3)ccc21)c1ccc(-c2coc3cc(Cl)ccc3c2=O)cc1`: the results for the IC50 on B1 bradykinin receptor [1] and at B1 bradykinin receptor [2] were over 0.8 µM and 0.264 µM, respectively. On B1 bradykinin receptor [3], this compound displayed an inhibition constant Ki of 0.042 µM.
As to `O=C(N[C@H]1CCCc2cc(CN3CCCCC3)ccc21)c1ccc(-c2coc3c(Cl)cccc3c2=O)cc1`, the IC50 against B1 bradykinin receptor [1] was over 4 µM; at B1 bradykinin receptor [2] it was 0.186 µM. The affinity at B1 bradykinin receptor [3], expressed as Ki, was 0.481 µM.
The compound `O=C(N[C@H]1CCCc2cc(CN3CCCCC3)ccc21)c1ccc(-c2coc3cccc(F)c3c2=O)cc1` showed a clearance in data set [4] of 25.5 mL/min/kg. Moreover, in data set [5], the Vd is 8.83 L/kg. In [6], this compound had a half-life of 3.8 h. In addition, the results for the half-maximal inhibitory concentration (IC50) against B1 bradykinin receptor [1] and on B1 bradykinin receptor [2] were 0.024 µM and 0.012 µM, respectively. Further, the inhibition constant (Ki) on B1 bradykinin receptor [3] was 0.017 µM. This compound also yielded a bioavailability in data set [9] of 27.9%.
As to `Cc1cccc2occ(-c3ccc(C(=O)N[C@H]4CCCc5cc(CN6CCCCC6)ccc54)cc3)c(=O)c12`, the values for the IC50 against B1 bradykinin receptor [1] and at B1 bradykinin receptor [2] were 0.139 µM and 0.066 µM, respectively. This compound showed an inhibition constant (Ki) on B1 bradykinin receptor [3] of 0.015 µM.
